According to US20230017045A1, “PYRIDINE AND PYRIMIDINE CARBOXYLATE HERBICIDES AND METHODS OF USE THEREOF” (Dow AgroSciences LLC, priority 2017, published 2023):
Like-named read-outs stand apart in the source and are kept apart here.

Tested on: test plant species
Assay: Post-emergent herbicidal activity test (greenhouse, foliar spray, visual growth reduction)
Assay type: in vivo
Settings: post-emergence, 336 h, 140 g ai/ha, 14 days after application
In short: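 Visual scoring 14 d after treatment (0 = no injury, 100 = complete control) against nontreated and solvent-blank plants gave percent growth reduction. Foliar application used a track sprayer delivering 187 L/ha to seedlings at first or second true leaf stage, grown at 23–29 °C day, ~15 h photoperiod.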

[1] = ALOMY: blackgrass (Alopecurus myosuroides), read-out: Visual Growth Reduction (%) 14 Days After Application, ALOMY
[2] = AMARE: redroot pigweed (Amaranthus retroflexus), read-out: Visual Growth Reduction (%) 14 Days After Application, AMARE
[3] = AVEFA: wild oat (Avena fatua), read-out: Visual Growth Reduction (%) 14 Days After Application, AVEFA
[4] = CHEAL: lambsquarters (Chenopodium album), read-out: Visual Growth Reduction (%) 14 Days After Application, CHEAL
[5] = CIRAR: canada thistle (Cirsium arvense), read-out: Visual Growth Reduction (%) 14 Days After Application, CIRAR
[6] = CYPES: yellow nutsedge (Cyperus esculentus), read-out: Visual Growth Reduction (%) 14 Days After Application, CYPES
[7] = DIGSA: crabgrass (Digitaria sanguinalis), read-out: Visual Growth Reduction (%) 14 Days After Application, DIGSA
[8] = ECHCG: barnyardgrass (Echinochloa crus-galli), read-out: Visual Growth Reduction (%) 14 Days After Application, ECHCG
[9] = IPOHE: ivy-leaf morning glory (Ipomoea hederacea), read-out: Visual Growth Reduction (%) 14 Days After Application, IPOHE
[10] = KCHSC: kochia (Bassia scoparia), read-out: Visual Growth Reduction (%) 14 Days After Application, KCHSC
[11] = ORYSA: rice (Oryza sativa), read-out: Visual Growth Reduction (%) 14 Days After Application, ORYSA
[12] = SETFA: giant foxtail (Setaria faberi), read-out: Visual Growth Reduction (%) 14 Days After Application, SETFA
[13] = SORVU: grain sorghum (Sorghum vulgare), read-out: Visual Growth Reduction (%) 14 Days After Application, SORVU
[14] = STEME: common chickweed (Stellaria media), read-out: Visual Growth Reduction (%) 14 Days After Application, STEME
[15] = TRZAS: wheat, spring (Triticum aestivum), read-out: Visual Growth Reduction (%) 14 Days After Application, TRZAS

Row | SMILES | pest or weed control at 140 g/ha [1] [%] | pest or weed control at 140 g/ha [2] [%] | pest or weed control at 140 g/ha [3] [%] | pest or weed control at 140 g/ha [4] [%] | pest or weed control at 140 g/ha [5] [%] | pest or weed control at 140 g/ha [6] [%] | pest or weed control at 140 g/ha [7] [%] | pest or weed control at 140 g/ha [8] [%] | pest or weed control at 140 g/ha [9] [%] | pest or weed control at 140 g/ha [10] [%] | pest or weed control at 140 g/ha [11] [%] | pest or weed control at 140 g/ha [12] [%] | pest or weed control at 140 g/ha [13] [%] | pest or weed control at 140 g/ha [14] [%] | pest or weed control at 140 g/ha [15] [%]
1 | O=C(O)c1nc(-c2ccc(SC(F)(F)F)cc2Cl)c(F)cc1Cl [F131, 3-Chloro-6-(2-chloro-4-((trifluoromethyl)thio)phenyl)-5-fluoropicolinic acid] | 45 to 59 | 95 to 100 | 75 to 84 | 95 to 100 | 95 to 100 | 0 to 29 | 95 to 100 | 60 to 74 | 95 to 100 | 95 to 100 | 30 to 44 | 85 to 94 | 85 to 94 | 0 to 29 | 60 to 74
2 | O=C(O)c1nc(-c2ccc(C(F)(F)F)cc2Cl)ccc1F [F132, 6-(2-Chloro-4-(trifluoromethyl)phenyl)-3-fluoropicolinic acid] | 0 to 29 | 95 to 100 | 0 to 29 | 95 to 100 | 85 to 94 | 0 to 29 | 75 to 84 | 60 to 74 | 95 to 100 | 75 to 84 | 0 to 29 | 75 to 84 | 85 to 94 | 0 to 29 | 0 to 29
3 | O=C(O)c1nc(-c2ccnc(Cl)c2Cl)ccc1Cl [F133, 2′,3′,5-Trichloro-[2,4′-bipyridine]-6-carboxylic acid] | 0 to 29 | 0 to 29 | 0 to 29 | 75 to 84 | 0 to 29 | 0 to 29 | 45 to 59 | 0 to 29 | 45 to 59 | 0 to 29 | 0 to 29 | 0 to 29 | 60 to 74 | 0 to 29 | 0 to 29
4 | COC(=O)c1nc(-c2ccc(SC(F)(F)F)cc2Cl)c(F)cc1Cl [F135, Methyl 3-chloro-6-(2-chloro-4-((trifluoromethyl)thio)phenyl)-5 fluoropicolinate] | 30 to 44 | 95 to 100 | 60 to 74 | 85 to 94 | 95 to 100 | 0 to 29 | 95 to 100 | 45 to 59 | 95 to 100 | 85 to 94 | 0 to 29 | 85 to 94 | 95 to 100 | 0 to 29 | 45 to 59
5 | COC(=O)c1nc(-c2ccc(C(F)(F)F)c(C)c2Cl)ccc1Cl [F136, methyl 3-chloro-6-(2-chloro-3-methyl-4-(trifluoromethyl)phenyl)picolinate] | 0 to 29 | 95 to 100 | 0 to 29 | 75 to 84 | 0 to 29 | 0 to 29 | 60 to 74 | 0 to 29 | 95 to 100 | 45 to 59 | 0 to 29 | 0 to 29 | 75 to 84 | 0 to 29 | 0 to 29
6 | C=Cc1c(C(F)(F)F)ccc(-c2ccc(Cl)c(C(=O)OC)n2)c1Cl [F137, methyl 3-chloro-6-(2-chloro-4-(trifluoromethyl)-3-vinylphenyl)picolinate] | 0 to 29 | 60 to 74 | 0 to 29 | 75 to 84 | 0 to 29 | 0 to 29 | 30 to 44 | 0 to 29 | 95 to 100 | 0 to 29 | 0 to 29 | 0 to 29 | 60 to 74 | 0 to 29 | 0 to 29
7 | COC(=O)c1nc(-c2c(Cl)cc(C(F)(F)F)cc2S(C)(=O)=O)ccc1Cl [F138, methyl 3-chloro-6-(2-chloro-6-(methylsulfonyl)-4-(trifluoromethyl)phenyl)picolinate] | 0 to 29 | 85 to 94 | 0 to 29 | 60 to 74 | 60 to 74 | 0 to 29 | 0 to 29 | 0 to 29 | 75 to 84 | 60 to 74 | 0 to 29 | 0 to 29 | 0 to 29 | 0 to 29 | 0 to 29
8 | COC(=O)c1nc(-c2ccc(C(F)(F)F)c(S(C)(=O)=O)c2Cl)ccc1Cl [F139, methyl 3-chloro-6-(2-chloro-3-(methylsulfonyl)-4-(trifluoromethyl)phenyl)picolinate] | 0 to 29 | 0 to 29 | 0 to 29 | 0 to 29 | 0 to 29 | 30 to 44 | 0 to 29 | 0 to 29 | 0 to 29 | 0 to 29 | 0 to 29 | 0 to 29 | 0 to 29 | 0 to 29 | 0 to 29
9 | COC(=O)c1nc(-c2ccc(C(F)(F)F)c(Br)c2Cl)ccc1Cl [F140, methyl 6-(3-bromo-2-chloro-4-(trifluoromethyl)phenyl)-3-chloropicolinate] | 0 to 29 | 85 to 94 | 0 to 29 | 85 to 94 | 45 to 59 | 0 to 29 | 85 to 94 | 0 to 29 | 95 to 100 | 0 to 29 | 0 to 29 | 75 to 84 | 85 to 94 | 0 to 29 | 0 to 29
10 | CO/N=C/c1c(C(F)(F)F)ccc(-c2ccc(Cl)c(C(=O)OC)n2)c1Cl [F141, Methyl (E)-3-chloro-6-(2-chloro-3-((methoxyimino)methyl)-4-(trifluoromethyl)phenyl)picolinate] | 0 to 29 | 75 to 84 | 0 to 29 | 0 to 29 | 0 to 29 | 0 to 29 | 60 to 74 | 0 to 29 | 0 to 29 | 60 to 74 | 0 to 29 | 0 to 29 | 0 to 29 | 0 to 29 | 0 to 29
